Laboratory results reported in US20230021483A1, “[…] […] METHOD AND CLASSIFICATION OF PHARMACEUTICAL COMPONENTS BY USING TRANSCRIPTOMES” (National Institutes of Biomedical Innovation, Health and …, priority 2016, published 2023).

Test system: preferentially upregulated genes in LV, SP, LN
Assay: Z-score-based differential gene expression analysis (adjuvant group- or adjuvant-associated genes, 40 module mapping, TargetMine annotation)
Format: in vivo, C57BL/6 mice
Details: ID, LV
How it was run: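 Per-sample fold-change values converted to gene-wise z-scores within each organ's data set, then triplicate z-scores summed per adjuvant. Genes with summed score >3 taken as preferentially expressed; gene groups defined by combined per-adjuvant z-score thresholds (z>1 to z>3) specific to each organ.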

For `Nc1nc2c(ncn2[C@@H]2O[C@@H]3COP(=O)(O)O[C@H]4[C@@H](O)[C@H](n5cnc6c(=O)[nH]c(N)nc65)O[C@@H]4COP(=O)(O)O[C@H]3[C@H]2O)c(=O)[nH]1` [cdiGMP, Cyclic diguanylate monophosphate], the “Stat1 1450034_at (Group G1, Modules 20)” value (sample x1) was 0.88, the “Tdrd7 1426716_at (Group G1, Modules 20)” value (sample x1) was 1.47 and the “Tor1aip2 1418115_s_at (Group G1, Modules 20)” value (from here on “Tor1aip2 1418115_s_at”) (sample x1) was 1.81. The “Tor1aip2 1418116_at (Group G1, Modules 20)” value (sample x1) was 1.58, the “Tor1aip2 1435526_at (Group G1, Modules 20)” value (sample x1) was 0.94 and the “Trim12a 1437432_a_at (Group G1, Modules 20)” value (sample x1) was 0.73. The “Uba7 1426970_a_at (Group G1, Modules 20)” value (sample x1) was 0.53, the “Adar 1425405_a_at (Group G1, Modules 20)” value (sample x2) was 1.67 and the “Adar 1434268_at (Group G1, Modules 20)” value (sample x2) was 1.83. The “Ddx58 1436562_at (Group G1, Modules 20)” value (sample x2) was 0.88, the “Ddx58 1456890_at (Group G1, Modules 20)” value (sample x2) was 1.45 and the “Eif2ak2 1422005_at (Group G1, Modules 20)” value (sample x2) was 1.38. The “G3bp2 1421323_a_at (Group G1, Modules 20)” value (sample x2) was 1.5, the “Gm9706///Isg15 1431591_s_at (Group G1, Modules 20)” value (sample x2) was 0.94 and the “H2-T10///H2-T22///H2-T9 1449875_s_at (Group G1, Modules 20)” value (sample x2) was 1.04. For the same molecule, the “Ifih1 1426276_at (Group G1, Modules 20)” value (sample x2) was 1.09, the “Ifit1 1450783_at (Group G1, Modules 20)” value (sample x2) was 2.28 and the “Ifit3 1449025_at (Group G1, Modules 20)” value (sample x2) was 1.75. The “Irf7 1417244_a_at (Group G1, Modules 20)” value (sample x2) was 1.21, the “Irgm1 1418825_at (Group G1, Modules 20)” value (sample x2) was 1.29 and the “Mndal 1426906_at (Group G1, Modules 20)” value (sample x2) was 2.45. The “Pml 1448757_at (Group G1, Modules 20)” value (sample x2) was 1.57, the “Pml 1456103_at (Group G1, Modules 20)” value (sample x2) was 1.3 and the “Rnf213 1455500_at (Group G1, Modules 20)” value (sample x2) was 2.08. For the same molecule, the “Rsad2 1436058_at (Group G1, Modules 20)” value (sample x2) was 2.41, the “Shisa5 1423986_a_at (Group G1, Modules 20)” value (sample x2) was 1.07 and the “Shisa5 1437503_a_at (Group G1, Modules 20)” value (sample x2) was 1.12. The “Stat1 1450033_a_at (Group G1, Modules 20)” value (sample x2) was 1.44, the “Stat1 1450034_at (Group G1, Modules 20)” value (sample x2) was 1.02 and the “Tdrd7 1426716_at (Group G1, Modules 20)” value (sample x2) was 1.15. For the same molecule, the “Tor1aip2 1418115_s_at” value (sample x2) was 1.67, the “Tor1aip2 1418116_at (Group G1, Modules 20)” value (sample x2) was 1.33 and the “Tor1aip2 1435526_at (Group G1, Modules 20)” value (sample x2) was 0.83. The “Trim12a 1437432_a_at (Group G1, Modules 20)” value (sample x2) was 0.83, the “Uba7 1426970_a_at (Group G1, Modules 20)” value (sample x2) was 1.46 and the “Adar 1425405_a_at (Group G1, Modules 20)” value (sample x3) was 1.66. The “Adar 1434268_at (Group G1, Modules 20)” value (sample x3) was 2.95, the “Ddx58 1436562_at (Group G1, Modules 20)” value (sample x3) was 1.49 and the “Ddx58 1456890_at (Group G1, Modules 20)” value (sample x3) was 2.07. The “Eif2ak2 1422005_at (Group G1, Modules 20)” value (sample x3) was 1.93, the “G3bp2 1421323_a_at (Group G1, Modules 20)” value (sample x3) was 2.34 and the “Gm9706///Isg15 1431591_s_at (Group G1, Modules 20)” value (sample x3) was 2.02. The “H2-T10///H2-T22///H2-T9 1449875_s_at (Group G1, Modules 20)” value (sample x3) was 2.06, the “Ifih1 1426276_at (Group G1, Modules 20)” value (sample x3) was 1.65 and the “Ifit1 1450783_at (Group G1, Modules 20)” value (sample x3) was 2.4. The “Ifit3 1449025_at (Group G1, Modules 20)” value (sample x3) was 2.34, the “Irf7 1417244_a_at (Group G1, Modules 20)” value (sample x3) was 1.92 and the “Irgm1 1418825_at (Group G1, Modules 20)” value (sample x3) was 1.81. The “Mndal 1426906_at (Group G1, Modules 20)” value (sample x3) was 2.76, the “Pml 1448757_at (Group G1, Modules 20)” value (sample x3) was 2.16 and the “Pml 1456103_at (Group G1, Modules 20)” value (sample x3) was 2.58. The “Rnf213 1455500_at (Group G1, Modules 20)” value (sample x3) was 3.16, the “Rsad2 1436058_at (Group G1, Modules 20)” value (sample x3) was 2.39 and the “Shisa5 1423986_a_at (Group G1, Modules 20)” value (sample x3) was 1.57. The “Shisa5 1437503_a_at (Group G1, Modules 20)” value (sample x3) was 1.32, the “Stat1 1450033_a_at (Group G1, Modules 20)” value (sample x3) was 2.11 and the “Stat1 1450034_at (Group G1, Modules 20)” value (sample x3) was 2.07. For the same molecule, the “Tdrd7 1426716_at (Group G1, Modules 20)” value (sample x3) was 2.22 and the “Tor1aip2 1418115_s_at” value (sample x3) was 2.42.
